Results as given in PubChem BioAssay (NCI).
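Interpolation was linear, between the two tested concentrations surrounding the appropriate level; five concentrations were tested over 48 hours in 96-well plates. Abbreviation: GI50, concentration required for 50% inhibition of growth. Definition used: TGI = concentration required for complete inhibition of growth.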

What was measured:
Test in all cases: DTP human tumour cell line panel, 48 h
[1] = tested on: HL-60(TB) leukemia
[2] = tested on: T-47D breast
[3] = tested on: OVCAR-8 ovarian
[4] = tested on: HS 578T breast
[5] = tested on: LOX IMVI melanoma
[6] = tested on: 786-0 renal
[7] = tested on: NCI/ADR-RES ovarian
[8] = tested on: DU-145 prostate
[9] = tested on: SN12C renal
[10] = tested on: MOLT-4 leukemia
[11] = tested on: PC-3 prostate
[12] = tested on: MCF7 breast
[13] = tested on: OVCAR-4 ovarian
[14] = tested on: NCI-H460 lung
[15] = tested on: KM12 colon
[16] = tested on: COLO 205 colon
[17] = tested on: SF-268 CNS
[18] = tested on: SK-MEL-28 melanoma
[19] = tested on: RPMI-8226 leukemia
[20] = tested on: OVCAR-5 ovarian
[21] = tested on: A549 NSCLC
[22] = tested on: SF-539 CNS
[23] = tested on: SW-620 colon
[24] = tested on: NCI-H226 lung
[25] = tested on: MDA-MB-231 breast
[26] = tested on: SK-OV-3 ovarian
[27] = tested on: SK-MEL-5 melanoma
[28] = tested on: EKVX NSCLC
[29] = tested on: NCI-H522 lung

C=C1C(=O)O[C@H]2[C@H]1CC/C(C=Nc1ccc(C(F)(F)F)cc1N)=C\CC[C@@]1(C)O[C@@H]21
GI50 [1]: 3.53 µM | TGI [1]: 14.3 µM | GI50 [2]: 3.31 µM | TGI [2]: 22.1 µM | GI50 [3]: 4.29 µM | TGI [3]: 15.9 µM | GI50 [4]: 11.2 µM | TGI [4]: 40.4 µM | GI50 [5]: 4.12 µM | TGI [5]: 17.4 µM | GI50 [6]: 5.86 µM | TGI [6]: 18.5 µM | GI50 [7]: 8.09 µM | TGI [7]: 45.2 µM | GI50 [8]: 3.21 µM | TGI [8]: 13.1 µM | GI50 [9]: 10.1 µM | TGI [9]: 26.6 µM | GI50 [10]: 3.06 µM | TGI [10]: 9.67 µM | GI50 [11]: 9.08 µM | TGI [11]: 23.4 µM | GI50 [12]: 3.06 µM | TGI [12]: 16 µM | GI50 [13]: 4.44 µM | TGI [13]: 20.6 µM | GI50 [14]: 7.07 µM | TGI [14]: 22.7 µM | GI50 [15]: 13.4 µM | TGI [15]: 28.3 µM | GI50 [16]: 4.21 µM | TGI [16]: 16.3 µM | GI50 [17]: 7.6 µM | TGI [17]: 21.1 µM | GI50 [18]: 5.85 µM | TGI [18]: 20.2 µM | GI50 [19]: 3.24 µM | TGI [19]: 10.1 µM | GI50 [20]: 13.2 µM | TGI [20]: 31.7 µM | GI50 [21]: 17.2 µM | TGI [21]: 32.7 µM | GI50 [22]: 3.94 µM | TGI [22]: 15.4 µM | GI50 [23]: 3.67 µM | TGI [23]: 13.2 µM | GI50 [24]: 10 µM | TGI [24]: 32.2 µM | GI50 [25]: 7.05 µM | TGI [25]: 24.3 µM | GI50 [26]: 16.3 µM | TGI [26]: 30 µM | GI50 [27]: 13.5 µM | TGI [27]: 26.7 µM | GI50 [28]: 10.8 µM | TGI [28]: 23.4 µM | GI50 [29]: 2.43 µM | TGI [29]: 7.8 µM
